# Reference: patent US4689326A, “Process for controlling hyperlipidemia” (Research Corporation, priority 1985, dated 1987)
# Columns and labels:
# [1] = tested on: Mitochondrial Citrate Exchange; experiment: In vitro enzyme activity, liver homogenate: mitochondrial citrate exchange; format: biochemical, CF1 male mouse; conditions: ± SD, N = 6
# Experimental: (§1) In vitro enzymatic studies were undertaken using 10% homogenates of CF1 male mouse liver with […] of compound 3,4,5,6-dibenzohomopiperidine. In addition, in vivo enzymatic studies were performed, again using 10% liver homogenates (prepared in 0.25 M sucrose plus 0.001 M (ethylenedinitrilo)-tetraacetic acid, ph 7.25 from CF1 male mice obtained after administering 3,4,5,6-dibenzohomopiperidine for 16 days at a concentration ranging from 10 to 60 mg/kg/day, intraperitoneally.
# (§2) The following enzyme activities were determined by following standard literature procedures: acetyl coenzyme synthetase; adenosine triphosphate dependent citrate lyase; mitochondrial citrate exchange; cholesterol/7 hydroxylase; 3-hydroxy-3-methyl-glutaryl coenzyme A reductase; acetyl coenzyme A carboxylase activity; fatty acid synthetase activity; sn-glycerol-3-phosphate acyl transferase activity; phosphatidate phosphohydrolase activity; cholesterol acyl transferase; and heparin activated hepatic lypoprotein lipase. Protein was determined for all enzyme assays by the Lowry et al. technique (J. Biol. Chem, 193, 265 (1951)).
# [2] = biological target: T1, HMG CoA Reductase (Mus musculus, UniProt Q01237); experiment: In vitro enzyme activity, liver homogenate: HMG CoA reductase; format: biochemical, CF1 male mouse; conditions: ± SD, N = 6, read-out: Percent Control, in vitro enzyme activity
# T1 construct: 10% homogenates of CF1 male mouse liver; from tissue; host or cells: CF1 male mouse liver, 10% homogenate
# T1 sequence (Q01237 1-887): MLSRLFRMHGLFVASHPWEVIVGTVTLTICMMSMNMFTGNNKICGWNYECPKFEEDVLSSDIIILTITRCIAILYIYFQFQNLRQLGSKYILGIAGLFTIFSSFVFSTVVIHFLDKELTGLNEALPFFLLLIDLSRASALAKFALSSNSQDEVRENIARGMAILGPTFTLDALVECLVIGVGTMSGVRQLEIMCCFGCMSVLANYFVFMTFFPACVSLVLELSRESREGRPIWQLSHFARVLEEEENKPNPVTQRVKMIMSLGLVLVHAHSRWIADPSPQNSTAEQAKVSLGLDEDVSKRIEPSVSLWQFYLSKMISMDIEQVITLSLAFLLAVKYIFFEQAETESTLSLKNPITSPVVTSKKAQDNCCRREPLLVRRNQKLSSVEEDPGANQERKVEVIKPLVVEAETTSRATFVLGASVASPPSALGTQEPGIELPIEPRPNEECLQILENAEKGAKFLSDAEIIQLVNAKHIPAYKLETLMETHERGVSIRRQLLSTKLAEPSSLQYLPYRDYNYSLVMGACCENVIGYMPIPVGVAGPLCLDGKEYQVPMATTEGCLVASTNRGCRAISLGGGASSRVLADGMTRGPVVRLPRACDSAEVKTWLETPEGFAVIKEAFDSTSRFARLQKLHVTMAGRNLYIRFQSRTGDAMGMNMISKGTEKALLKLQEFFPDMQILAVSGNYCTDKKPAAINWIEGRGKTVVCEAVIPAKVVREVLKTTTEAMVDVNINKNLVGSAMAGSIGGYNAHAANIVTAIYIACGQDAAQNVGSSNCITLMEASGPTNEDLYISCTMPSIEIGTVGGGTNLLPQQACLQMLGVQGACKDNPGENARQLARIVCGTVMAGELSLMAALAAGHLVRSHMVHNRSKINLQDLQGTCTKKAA
# Experimental: as §1, §2
# [3] = biological target: T2, Cholesterol-7 Hydroxylase (Mus musculus, UniProt Q64505); experiment: In vitro enzyme activity, liver homogenate: cholesterol-7 hydroxylase; format: biochemical, CF1 male mouse; conditions: ± SD, N = 6, read-out: Percent Control, in vitro enzyme activity
# T2 construct: 10% homogenates of CF1 male mouse liver; from tissue; host or cells: CF1 male mouse liver, 10% homogenate
# T2 sequence (Q64505 whole entry): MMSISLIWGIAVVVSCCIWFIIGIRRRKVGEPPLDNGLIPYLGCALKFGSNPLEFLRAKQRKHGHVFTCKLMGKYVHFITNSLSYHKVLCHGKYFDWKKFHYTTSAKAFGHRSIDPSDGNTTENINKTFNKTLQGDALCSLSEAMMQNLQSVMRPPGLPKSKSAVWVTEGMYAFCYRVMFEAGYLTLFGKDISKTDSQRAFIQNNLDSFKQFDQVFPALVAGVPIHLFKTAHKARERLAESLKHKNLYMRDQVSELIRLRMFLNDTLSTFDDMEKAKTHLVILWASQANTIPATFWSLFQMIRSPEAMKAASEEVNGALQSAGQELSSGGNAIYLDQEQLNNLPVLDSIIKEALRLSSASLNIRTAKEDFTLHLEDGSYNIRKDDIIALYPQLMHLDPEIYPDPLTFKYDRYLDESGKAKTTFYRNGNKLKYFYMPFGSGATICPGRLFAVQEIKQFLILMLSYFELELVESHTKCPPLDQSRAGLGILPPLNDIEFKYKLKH
# Experimental: as §1, §2
# [4] = biological target: T3, Fatty Acid Synthetase (Mus musculus, UniProt P19096); experiment: In vitro enzyme activity, liver homogenate: fatty acid synthetase; format: biochemical, CF1 male mouse; conditions: ± SD, N = 6, read-out: Percent Control, in vitro enzyme activity
# T3 construct: 10% homogenates of CF1 male mouse liver; from tissue; host or cells: CF1 male mouse liver, 10% homogenate
# T3 sequence (P19096 whole entry): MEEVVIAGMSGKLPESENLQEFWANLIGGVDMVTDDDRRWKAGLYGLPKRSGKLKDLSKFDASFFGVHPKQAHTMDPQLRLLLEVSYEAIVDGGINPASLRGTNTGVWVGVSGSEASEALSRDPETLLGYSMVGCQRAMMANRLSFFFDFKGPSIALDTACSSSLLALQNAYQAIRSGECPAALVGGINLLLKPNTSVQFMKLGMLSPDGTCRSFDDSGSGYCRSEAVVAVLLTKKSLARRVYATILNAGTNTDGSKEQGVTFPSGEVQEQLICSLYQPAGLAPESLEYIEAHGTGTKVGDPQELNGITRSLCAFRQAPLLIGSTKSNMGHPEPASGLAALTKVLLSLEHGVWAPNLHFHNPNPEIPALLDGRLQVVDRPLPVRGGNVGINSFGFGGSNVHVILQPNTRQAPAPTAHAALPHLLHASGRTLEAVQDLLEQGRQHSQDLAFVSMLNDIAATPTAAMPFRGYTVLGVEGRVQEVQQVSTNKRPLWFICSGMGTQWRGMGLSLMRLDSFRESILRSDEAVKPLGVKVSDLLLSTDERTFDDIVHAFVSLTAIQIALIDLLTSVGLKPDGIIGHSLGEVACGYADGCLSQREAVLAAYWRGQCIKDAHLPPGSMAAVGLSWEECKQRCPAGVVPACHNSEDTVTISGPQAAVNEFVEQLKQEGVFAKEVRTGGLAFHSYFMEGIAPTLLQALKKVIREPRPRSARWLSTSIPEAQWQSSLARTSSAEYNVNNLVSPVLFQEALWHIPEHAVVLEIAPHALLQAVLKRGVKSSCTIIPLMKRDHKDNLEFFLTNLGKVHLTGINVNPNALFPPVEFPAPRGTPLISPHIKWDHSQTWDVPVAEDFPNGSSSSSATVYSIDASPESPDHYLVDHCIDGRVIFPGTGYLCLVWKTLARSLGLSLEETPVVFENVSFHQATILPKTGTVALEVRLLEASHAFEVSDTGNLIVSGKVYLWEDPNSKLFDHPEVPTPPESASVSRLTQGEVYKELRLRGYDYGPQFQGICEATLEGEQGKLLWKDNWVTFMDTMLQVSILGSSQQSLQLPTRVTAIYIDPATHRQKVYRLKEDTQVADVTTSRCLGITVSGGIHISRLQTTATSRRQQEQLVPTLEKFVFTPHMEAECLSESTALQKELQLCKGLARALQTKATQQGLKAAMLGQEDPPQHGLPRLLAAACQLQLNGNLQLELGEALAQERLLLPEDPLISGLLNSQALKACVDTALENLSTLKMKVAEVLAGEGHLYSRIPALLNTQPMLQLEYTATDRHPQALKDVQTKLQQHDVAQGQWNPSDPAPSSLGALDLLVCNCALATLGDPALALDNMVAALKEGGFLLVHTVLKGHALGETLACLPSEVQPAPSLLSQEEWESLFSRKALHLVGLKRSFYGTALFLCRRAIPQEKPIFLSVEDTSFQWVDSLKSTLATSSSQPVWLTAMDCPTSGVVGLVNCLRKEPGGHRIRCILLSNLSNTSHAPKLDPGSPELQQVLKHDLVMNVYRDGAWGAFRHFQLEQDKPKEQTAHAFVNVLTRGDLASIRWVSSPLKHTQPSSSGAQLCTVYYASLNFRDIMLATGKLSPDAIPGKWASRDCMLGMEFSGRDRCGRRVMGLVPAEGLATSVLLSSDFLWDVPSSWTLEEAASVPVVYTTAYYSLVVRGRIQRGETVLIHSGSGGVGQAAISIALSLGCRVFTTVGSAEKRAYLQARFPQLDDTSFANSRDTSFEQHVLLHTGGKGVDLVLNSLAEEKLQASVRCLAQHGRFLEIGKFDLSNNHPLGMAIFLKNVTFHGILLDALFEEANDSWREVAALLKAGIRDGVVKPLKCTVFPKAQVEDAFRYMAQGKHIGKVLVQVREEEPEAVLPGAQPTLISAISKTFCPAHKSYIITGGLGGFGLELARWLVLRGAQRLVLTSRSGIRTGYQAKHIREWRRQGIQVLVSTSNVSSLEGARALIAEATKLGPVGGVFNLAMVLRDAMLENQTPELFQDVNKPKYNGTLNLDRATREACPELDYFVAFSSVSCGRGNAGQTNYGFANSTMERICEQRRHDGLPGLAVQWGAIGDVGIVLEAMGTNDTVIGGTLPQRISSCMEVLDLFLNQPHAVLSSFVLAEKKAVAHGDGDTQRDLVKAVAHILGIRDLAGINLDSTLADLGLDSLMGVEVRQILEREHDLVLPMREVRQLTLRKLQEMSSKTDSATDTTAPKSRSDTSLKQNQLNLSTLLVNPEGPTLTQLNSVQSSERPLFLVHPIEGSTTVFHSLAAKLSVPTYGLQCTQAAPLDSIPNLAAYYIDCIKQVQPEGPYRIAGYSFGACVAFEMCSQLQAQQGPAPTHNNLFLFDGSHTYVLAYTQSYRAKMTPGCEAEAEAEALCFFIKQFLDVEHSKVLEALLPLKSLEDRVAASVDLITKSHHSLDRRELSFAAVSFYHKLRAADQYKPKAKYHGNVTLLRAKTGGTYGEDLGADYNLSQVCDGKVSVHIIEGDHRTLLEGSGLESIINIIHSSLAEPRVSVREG
# Experimental: as §1, §2
# [5] = tested on: sn-Glycerol-3-Phosphate Acyl Transferase; experiment: In vitro enzyme activity, liver homogenate: sn-glycerol-3-phosphate acyl transferase; format: biochemical, CF1 male mouse; conditions: ± SD, N = 6
# Experimental: as §1, §2
# [6] = tested on: Phosphatidate Phosphohydrolase; experiment: In vivo enzyme activity, liver of treated mice: phosphatidate phosphohydrolase; design: species or system CF1 male mice; conditions: 16 days, ± SD
# Experimental: as §1, §2
# [7] = tested on: VLDL; experiment: Lipoprotein fractions in Rats, Example 11: VLDL; format: in vivo, Sprague Dawley male rats; conditions: oral 20 mg/kg/day, fourteen days, ± SD
# Experimental: A group of six Sprague Dawley male rats were treated with 20 mg/kg/day of 3,4,5,6-dibenzohomopiperidine. The treatment was applied orally. An equal number of Sprague Dawley male rats, having approximately the same weight, were utilized as an untreated control. At the end of fourteen days the control and treated rats were sacrificed. Blood was collected from the abdominal aorta and lipoprotein fractions were obtained by the method of Hatch and Lees [Adv. Lipid Rees., 6, 1 (1968)] and Havel et al. [J. Clin Invest., 34, 1345 (1955)]. Each of the fractions were analyzed for cholesterol, triglycerides, neutral lipids, phospholipids and protein levels.
# [8] = tested on: serum triglycerides; experiment: Testing of Normal Mice: serum triglycerides (BioDynamics kit), Example 7; format: in vivo, CF1 male mice; conditions: Mus musculus, 384 h, day 16, ± SD
smiles,measurement,setting,value
"c1ccc2c(c1)CNCc1ccccc1-2 [Compound 3, 3,4,5,6-dibenzohomopiperidine]","Percent Control, in vitro enzyme activity",[1]; 50 μM,99 ± 6%
same,"Percent Control, in vitro enzyme activity",[1]; 100 μM,97 ± 5%
same,"Percent Control, in vitro enzyme activity",[1]; 200 μM,99 ± 7%
same,remaining activity at 50 µM,[2]; 50 μM,95 ± 5%
same,remaining activity at 100 µM,[2]; 100 μM,151 ± 9%
same,remaining activity at 200 µM,[2]; 200 μM,255 ± 8%
same,remaining activity at 50 µM,[3]; 50 μM,68 ± 7%
same,remaining activity at 100 µM,[3]; 100 μM,72 ± 5%
same,remaining activity at 200 µM,[3]; 200 μM,98 ± 7%
same,remaining activity at 50 µM,[4]; 50 μM,91 ± 7%
same,remaining activity at 100 µM,[4]; 100 μM,92 ± 8%
same,remaining activity at 200 µM,[4]; 200 μM,101 ± 9%
same,"Percent Control, in vitro enzyme activity",[5]; 50 μM,35 ± 6%
same,"Percent Control, in vitro enzyme activity",[5]; 100 μM,34 ± 5%
same,"Percent Control, in vitro enzyme activity",[5]; 200 μM,51 ± 4%
same,"Percent Control, in vivo enzyme activity",[6]; 10 mg/kg/day ip,51 ± 4%
same,"Percent Control, in vivo enzyme activity",[6]; 20 mg/kg/day ip,47 ± 9%
same,"Percent Control, in vivo enzyme activity",[6]; 40 mg/kg/day ip,81 ± 6%
same,"Percent Control, in vivo enzyme activity",[6]; 60 mg/kg/day ip,100 ± 6%
same,"Cholesterol, concentration as a function of control",[7],40 ± 4%
same,"Neutral Lipids, concentration as a function of control",[7],63 ± 6%
same,"Phospholipids, concentration as a function of control",[7],95 ± 7%
same,"Protein, concentration as a function of control",[7],96 ± 8%
same,"Triglycerides, concentration as a function of control",[7],69 ± 5%
same,response vs control in vivo at 10 mg/kg,[8]; 10 mg/kg/day ip,48 ± 5%
same,response vs control in vivo at 40 mg/kg,[8]; 40 mg/kg/day ip,44 ± 6%
same,response vs control in vivo at 60 mg/kg,[8]; 60 mg/kg/day ip,55 ± 6%
